In PMC6177136, “Hybrid topoisomerase I and HDAC inhibitors as dual action anticancer agents” (PLoS ONE, 2018):

What was measured:
[1] = tested on: A2780-Dx; assay: Cytotoxicity assay (SRB, 72 h) A2780-Dx; type: cell-based, Human; conditions: for RI (Resistance Index): A2780-Dx versus A2780; for IC50: Homo sapiens, A2780/DX, 72 h, SRB assay, multidrug-resistant ovarian carcinoma, read-out: IC50 ± SD A2780-Dx
[2] = tested on: NCI-H460; assay: Cytotoxicity assay (SRB, 72 h) NCI-H460; type: cell-based, Human; conditions: Homo sapiens; for IC50: NCI-H460, 72 h, SRB assay, read-out: IC50 ± SD NCI-H460
[3] = tested on: A2780; assay: Cytotoxicity assay (SRB, 72 h) A2780; type: cell-based, Human; conditions: Homo sapiens, A2780, read-out: IC50 ± SD A2780
[4] = tested on: MM487; assay: Cytotoxicity assay, primary mesothelioma MM487; type: cell-based, Human; conditions: biphasic, 72 h, SBR assay; read-out: IC50 ± SD MM487
[5] = tested on: MM432; assay: Cytotoxicity assay, primary mesothelioma MM432; type: cell-based, Human; conditions: sarcomatoid, 72 h, SBR assay; read-out: IC50 ± SD MM432
[6] = tested on: MM481; assay: Cytotoxicity assay, primary mesothelioma MM481; type: cell-based, Human; conditions: epithelioid, 72 h, SBR assay; read-out: IC50 ± SD MM481
[7] = tested on: MM288; assay: Cytotoxicity assay, primary mesothelioma MM288; type: cell-based, Human; conditions: epithelioid, 72 h, SBR assay; read-out: IC50 ± SD MM288
[8] = tested on: MM317; assay: Cytotoxicity assay, primary mesothelioma MM317; type: cell-based, Human; conditions: epithelioid, 72 h, SBR assay; read-out: IC50 ± SD MM317
[9] = tested on: MM472; assay: Cytotoxicity assay, primary mesothelioma MM472; type: cell-based, Human; conditions: sarcomatoid, 72 h, SBR assay; read-out: IC50 ± SD MM472
[10] = tested on: MM473; assay: Cytotoxicity assay, primary mesothelioma MM473; type: cell-based, Human; conditions: epithelioid, 72 h, SBR assay; read-out: IC50 ± SD MM473
[11] = tested on: MM404; assay: Cytotoxicity assay, primary mesothelioma MM404; type: cell-based, Human; conditions: epithelioid, 72 h, SBR assay; read-out: IC50 ± SD MM404
[12] = tested on: MM491; assay: Cytotoxicity assay, primary mesothelioma MM491; type: cell-based, Human; conditions: biphasic, 72 h, SBR assay; read-out: IC50 ± SD MM491
[13] = tested on: Acetylated Tubulin; assay: Western blot, acetylation of tubulin in NCI-H460 cells; type: cell-based, Human; conditions: 24 h; SN38 0.05 μM, SAHA 5 μM, 3b and 3d 0.125–0.2–0.5 μM
Procedure: (§1) The supernatant, containing the total proteins extracts, were transferred in new vials. The protein concentration was measured by Bradford Protein Assay. Equal amounts of proteins for each sample were then resolved by SDS-PAGE and loaded on 10–12% polyacrilamide gels. The proteins were then transferred on nitrocellulose membranes. Molecular weights were estimated based upon the relative migration with molecular weight protein markers.
(§2) The non-specific binding was blocked by incubation of membranes in TBS-tween (25 mM Tris, 150 mM NaCl, 0.1% Tween 20) with 5% nonfat dry milk (BIORAD, Milan) for 60 minutes. Subsequently, the membrane was incubated overnight with primary antibodies: anti-Histone H4 (Millipore, 1:500), anti-acetyl-H4 (Santa Cruz, 1:1000) anti-p21 (Santa Cruz, 1:1000), anti-acetyl-tubulin (abcam, 1:1000), anti-α-tubulin (Sigma, 1:5000), anti β-actin (Sigma, 1:5000) and anti-Topoisomerase 1 (Santa Cruz, 1:500). After three washes with TBST blots were incubated with HRP-coniugated secondary anti-mouse and anti-rabbit (Santa Cruz, 1:5000) 1 hour at room temperature. After three washes with TBST the blots were developed with ECL substrate (GE Healthcare) and chemiluminescence detected by ChemiDoc Imaging System (Biorad). The optical density of the protein bands detected by western blotting was normalized on α -tubulin levels and analyzed by ChemiDoc software (Biorad). […]

[14] = tested on: HeLa; assay: Cytotoxicity assay (SRB, 72 h) HeLa; type: cell-based, Human; conditions: Homo sapiens, HeLa, read-out: IC50 ± SD HeLa
[15] = target: HDAC1 (Homo sapiens, UniProt Q13547); assay: HDAC profiling HDAC1; type: biochemical; conditions: purified isoform, 10 concentrations from 10 μM, triplicate
[16] = target: HDAC2 (Homo sapiens, UniProt Q92769); assay: HDAC profiling HDAC2; type: biochemical; conditions: purified isoform, 10 concentrations from 10 μM, triplicate
[17] = target: HDAC6 (Homo sapiens, UniProt Q9UBN7); assay: HDAC profiling HDAC6; type: biochemical; conditions: purified isoform, 10 concentrations from 10 μM, triplicate
[18] = tested on: Acetylated Histone H4; assay: Western blot, acetylation of histone H4 in NCI-H460 cells; type: cell-based, Human; conditions: 24 h; SN38 0.05 μM, SAHA 5 μM, 3b and 3d 0.125–0.2–0.5 μM
Procedure: as §1, §2

[19] = tested on: Capan 1; assay: Cytotoxicity assay (SRB, 72 h) Capan 1; type: cell-based, Human; conditions: Homo sapiens, CAPAN-1, read-out: IC50 ± SD Capan 1
[20] = tested on: A431; assay: Cytotoxicity assay (SRB, 72 h) A431; type: cell-based, Human; conditions: Homo sapiens, A-431, read-out: IC50 ± SD A431
[21] = target: HDAC10 (Homo sapiens, UniProt Q969S8); assay: HDAC profiling HDAC10; type: biochemical; conditions: purified isoform, 10 concentrations from 10 μM, triplicate
HDAC10, sequence (Q969S8 whole entry, canonical isoform): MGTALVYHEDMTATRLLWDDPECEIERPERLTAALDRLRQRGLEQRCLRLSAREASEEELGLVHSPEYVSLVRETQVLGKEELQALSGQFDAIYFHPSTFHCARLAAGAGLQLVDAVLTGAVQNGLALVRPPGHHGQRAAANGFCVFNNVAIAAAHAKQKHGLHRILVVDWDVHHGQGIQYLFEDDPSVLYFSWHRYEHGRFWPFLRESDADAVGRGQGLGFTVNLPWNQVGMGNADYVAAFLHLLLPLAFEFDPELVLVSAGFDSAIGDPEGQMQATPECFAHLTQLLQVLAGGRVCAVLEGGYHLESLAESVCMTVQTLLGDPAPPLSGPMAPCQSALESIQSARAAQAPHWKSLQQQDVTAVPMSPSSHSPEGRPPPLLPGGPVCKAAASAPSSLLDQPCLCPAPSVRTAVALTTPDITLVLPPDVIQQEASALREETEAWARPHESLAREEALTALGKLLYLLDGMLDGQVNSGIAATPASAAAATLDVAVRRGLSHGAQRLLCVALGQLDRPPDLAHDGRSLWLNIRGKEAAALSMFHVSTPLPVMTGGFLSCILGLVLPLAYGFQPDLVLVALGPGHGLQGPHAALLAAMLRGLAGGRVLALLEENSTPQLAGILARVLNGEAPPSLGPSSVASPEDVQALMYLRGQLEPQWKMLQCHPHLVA

HDAC1, sequence (Q13547 whole entry, canonical isoform): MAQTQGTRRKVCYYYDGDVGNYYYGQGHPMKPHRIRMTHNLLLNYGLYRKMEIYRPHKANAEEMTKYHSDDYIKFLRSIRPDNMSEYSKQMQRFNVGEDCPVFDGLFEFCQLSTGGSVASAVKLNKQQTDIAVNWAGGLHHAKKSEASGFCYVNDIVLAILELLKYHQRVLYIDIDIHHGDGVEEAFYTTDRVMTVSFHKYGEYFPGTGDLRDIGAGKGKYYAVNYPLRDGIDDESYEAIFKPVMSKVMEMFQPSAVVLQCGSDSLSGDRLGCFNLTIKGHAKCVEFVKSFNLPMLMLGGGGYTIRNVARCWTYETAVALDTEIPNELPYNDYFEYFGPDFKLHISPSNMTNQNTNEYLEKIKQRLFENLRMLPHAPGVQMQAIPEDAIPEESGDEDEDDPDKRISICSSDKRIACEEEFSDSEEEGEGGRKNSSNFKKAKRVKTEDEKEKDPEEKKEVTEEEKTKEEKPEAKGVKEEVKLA
HDAC2, sequence (Q92769 whole entry, canonical isoform): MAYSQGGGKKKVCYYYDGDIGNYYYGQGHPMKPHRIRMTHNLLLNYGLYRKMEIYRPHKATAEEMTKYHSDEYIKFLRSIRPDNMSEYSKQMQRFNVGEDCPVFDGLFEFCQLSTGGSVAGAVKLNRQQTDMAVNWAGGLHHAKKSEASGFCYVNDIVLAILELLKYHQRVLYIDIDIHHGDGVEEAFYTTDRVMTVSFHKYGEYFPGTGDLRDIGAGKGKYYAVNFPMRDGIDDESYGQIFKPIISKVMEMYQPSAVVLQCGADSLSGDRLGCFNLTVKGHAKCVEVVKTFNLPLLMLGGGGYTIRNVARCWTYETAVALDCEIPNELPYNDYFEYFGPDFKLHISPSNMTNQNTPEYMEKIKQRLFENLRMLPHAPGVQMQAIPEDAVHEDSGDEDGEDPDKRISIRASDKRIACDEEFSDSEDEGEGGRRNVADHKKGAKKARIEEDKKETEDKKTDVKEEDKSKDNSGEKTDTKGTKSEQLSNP
HDAC6, sequence (Q9UBN7 whole entry, canonical isoform): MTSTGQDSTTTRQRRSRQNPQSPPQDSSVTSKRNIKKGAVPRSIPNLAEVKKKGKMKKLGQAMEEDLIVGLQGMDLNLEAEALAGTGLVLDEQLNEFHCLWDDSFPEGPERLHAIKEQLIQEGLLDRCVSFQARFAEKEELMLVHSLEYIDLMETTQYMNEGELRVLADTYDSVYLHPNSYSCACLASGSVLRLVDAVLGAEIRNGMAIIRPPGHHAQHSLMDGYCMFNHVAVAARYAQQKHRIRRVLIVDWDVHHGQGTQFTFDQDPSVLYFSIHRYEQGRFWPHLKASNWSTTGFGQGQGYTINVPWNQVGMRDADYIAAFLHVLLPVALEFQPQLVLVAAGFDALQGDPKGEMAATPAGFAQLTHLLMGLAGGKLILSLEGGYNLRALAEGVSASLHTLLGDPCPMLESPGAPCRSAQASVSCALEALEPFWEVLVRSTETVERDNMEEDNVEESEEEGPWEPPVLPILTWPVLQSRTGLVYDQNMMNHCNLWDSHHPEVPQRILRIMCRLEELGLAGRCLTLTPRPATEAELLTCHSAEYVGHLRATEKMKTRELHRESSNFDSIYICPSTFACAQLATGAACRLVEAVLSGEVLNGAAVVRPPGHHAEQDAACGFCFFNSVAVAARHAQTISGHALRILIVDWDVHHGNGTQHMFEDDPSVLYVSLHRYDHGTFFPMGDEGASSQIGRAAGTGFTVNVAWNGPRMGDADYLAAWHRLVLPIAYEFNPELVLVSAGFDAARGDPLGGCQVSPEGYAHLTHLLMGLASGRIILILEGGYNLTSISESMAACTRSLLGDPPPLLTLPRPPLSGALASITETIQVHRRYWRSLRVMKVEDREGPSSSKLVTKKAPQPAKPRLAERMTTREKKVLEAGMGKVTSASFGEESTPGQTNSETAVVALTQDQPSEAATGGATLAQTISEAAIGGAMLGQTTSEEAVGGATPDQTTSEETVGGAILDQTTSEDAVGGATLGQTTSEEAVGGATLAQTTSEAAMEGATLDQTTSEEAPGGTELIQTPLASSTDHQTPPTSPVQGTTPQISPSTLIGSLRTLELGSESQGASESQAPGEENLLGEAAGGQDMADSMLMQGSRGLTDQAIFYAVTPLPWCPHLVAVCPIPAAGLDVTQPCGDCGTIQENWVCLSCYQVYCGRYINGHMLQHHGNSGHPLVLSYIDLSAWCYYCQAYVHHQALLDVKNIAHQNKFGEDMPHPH

CC[C@@]1(O)C(=O)OCc2c1cc1n(c2=O)Cc2c-1nc1ccccc1c2C=NOCCCCCCNC(=O)CS [Compound 10, N-[camptothecin-7-yl-(methyleneaminooxy)-hexyl]-2-mercaptoacetamide]
RI (Resistance Index) [1]: 1.7
IC50 [1]: 350 ± 100 nM
IC50 [2]: 100 ± 10 nM
IC50 [3]: 210 ± 50 nM
melting point: 120 °C

N.N.[Cl][Pt][Cl] [Cisplatin]
IC50 [4]: 3000 ± 500 nM
IC50 [5]: 5000 ± 800 nM
IC50 [6]: 7000 ± 1500 nM
IC50 [7]: 8100 ± 300 nM
IC50 [8]: 4200 ± 600 nM
IC50 [9]: 1260 ± 100 nM
IC50 [10]: 2400 ± 200 nM
IC50 [11]: 2400 ± 500 nM
IC50 [12]: 6500 ± 900 nM

CC[C@@]1(O)C(=O)OCc2c1cc1n(c2=O)Cc2c-1nc1ccccc1c2C=NOCCCCCC(=O)NO [Compound 3b, 6-(camptothecin-7-ylmethyleneaminooxy)-hexanoic acid hydroxyamide]
accumulation of acetylated tubulin [13]: less potent than 3d on both targets
IC50 [14]: 160 ± 40 nM
IC50 [15]: 43 nM
RI (Resistance Index) [1]: 31.7
IC50 [1]: 270 ± 70 nM
IC50 [16]: 76.2 nM
IC50 [17]: 3.87 nM
IC50 [2]: 23 ± 4 nM
IC80 ([2]; NCI-H460 cells): 500 nM
accumulation of acetylated histone H4 [18]: less potent than 3d on both targets, particularly on H4
IC50 [3]: 8 ± 2 nM
IC50 [19]: 6 ± 0.7 nM
IC50 [20]: 4 ± 1 nM
IC50 [21]: 99.9 nM
